According to EP1948196B1, “USE OF TETRAORGANOSILICON COMPOUNDS” (Salama, Zoser B., priority 2005, dated 2007):
Like-named read-outs stand apart in the source and are kept apart here. Numbered stars: 1 amine (or outer) side, 2 acyl side, 3 side chain; on linkers, the order of the positions; unused ones are H or OH. Bridge positions count the residues as written; N and C are the ends. Peptide text beside a SMILES is read from it. I, II: the chains in the order shown. OSi(nPr)2O = CCC[Si](CCC)(O[*:1])O[*:2]; X1 = C[Si](C)(O[*:1])O[*:2]

Experiments:
Plattenepithelkarzinome = experiment: Effect on squamous cell carcinomas
Krebszellen = experiment: Effect of sugar silanes on cancer cells; assay type: cell-based
Lymphome = experiment: Effect on lymphomas
HIV-Vren = experiment: Antiviral effect; details: in particular as vesicles holding antisense constructs
Basalzellkarzinome = experiment: Effect on basal cell carcinomas
Medulloblastome [1] = experiment: Effect on medulloblastomas
Entero-Viren [2] = experiment: Antiviral effect; details: in particular as vesicles holding antisense constructs
Plasmozyten = experiment: Effect against plasmocytes
Hepatitis A-Viren = experiment: Antiviral effect; details: in particular as vesicles holding antisense constructs
[3] = test system: Kälber-Aortenendothelzellinie BKEz-7; experiment: tissue or blood; assay type: cell-based
Source text: Prüfung auf zytotoxisches Potential an Kälber-Aortenendothelzellinie BKEz-7
(§1) Als Marker für eine zytotoxische Wirkung wird bei Zellen der charakterisierten Kälber-Aortenendothelzellinie BKEz-7 die Hemmkonzentration ermittelt, bei der eine 50%-ige Hemmung der Zellproliferation erfolgt (im Vergleich zu Kontrollkulturen ohne Zusatz eines Zellinhibitors). Die resultierende Reduzierung der Zellzahl um 50% wird als IC 50 ausgedrückt. Die getesteten Silanverbindungen wurden als Suspensionen auf die Kulturen gegeben und 48 Stunden bei 37°C inkubiert. Zusätzlich erfolgten morphologische Kontrollen und Vitalitätsbestimmungen mittels dem Neutralrot-Test. Mit Ausnahme des Di(dodecanoyloxy)dimethylsilans standen alle Ergebnisse der morphologischen Untersuchungen in guter Übereinstimmung. […]

Osteosarkome = experiment: Effect on osteosarcomas
[4] = test system: Kälber-Aortenendothelzellinie BKEz-7; experiment: Neutral red vitality test; assay type: cell-based; details: compared with the cytotoxicity test
Description: as §1

Maus = experiment: Pharmacological observation in the mouse (central, vegetative and toxic effects, acute toxicity); assay type: in vivo
Outline: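 Mice given single doses of 5·10^-4, 1·10^-3 and 5·10^-3 mol/kg body weight and observed individually. Recorded: orienting lethal dose (oLD), motor activity, reactivity, skin and rectal temperature, and pupil motility.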

Osteosarkomen = experiment: Antimetastatic effect in rats; assay type: in vivo; details: in Ratten
Medulloblastome [5] = experiment: Effect on medulloblastomas; remark: listed apart in the source
Entero-Viren [6] = experiment: Antiviral effect; details: in particular as vesicles holding antisense constructs; remark: listed apart in the source

SMILES: CC[Si](CC)(OC(=O)[C@@H](NC(=O)[C@@H](NC(=O)[C@@H](N)C(C)C)C(C)C)C(C)C)OC(=O)[C@@H](NC(=O)[C@@H](NC(=O)[C@@H](N)C(C)C)C(C)C)C(C)C [Diethyl bis(trivalyl)silylester]
- Wirkung auf Seminome (Seminome): zeigen eine Wirkung

SMILES: CCC[Si](CCC)(OC(=O)[C@H](C)NC(=O)[C@H](C)NC(=O)[C@H](C)NC(=O)[C@H](C)N)OC(=O)[C@H](C)NC(=O)[C@H](C)NC(=O)[C@H](C)NC(=O)[C@H](C)N [Dipropyl bis(tetraalanyl)silylester] (I: H-AAAA / II: H-AAAA; linker I:C-II:C via OSi(nPr)2O)
- Wirkung gegen Plattenepithelkarzinome (Plattenepithelkarzinome): zeigen eine Wirkung

SMILES: CCCCCCCCCCCCCCCCCC[Si](C)(C)O[C@@H]1O[C@H](COC(C)=O)[C@@H](OC(C)=O)[C@H](OC(C)=O)[C@H]1OC(C)=O [1-O-Dimethyl(octadecyl)silyl-2,3,4,6-tetr'a-0-acteyl-ß-D-glucopyranosid]
- Wirkung auf Krebszellen (Krebszellen): zeigen ebenfalls eine Wirkung

SMILES: CCCCC/C=C\C/C=C\CCCCCCCC(=O)O[Si](OC(=O)CCCCCCC/C=C\C/C=C\CCCCC)(C(C)C)C(C)C [Di(linoylooxy)diisopropylsilan]
- Wirkung auf Lymphome (Lymphome): zeigen eine Wirkung
- Wirkung gegen HIV-Vren (HIV-Vren): zeigen eine Wirkung

SMILES: C[Si](C)(OC(=O)[C@H](Cc1ccccc1)NC(=O)[C@H](Cc1ccccc1)NC(=O)[C@@H](N)Cc1ccccc1)OC(=O)[C@H](Cc1ccccc1)NC(=O)[C@H](Cc1ccccc1)NC(=O)[C@@H](N)Cc1ccccc1 [Dimethyl bis(triphenylalanyl)silylester]
- Wirkung auf Basalzellkarzinome (Basalzellkarzinome): zeigen eine Wirkung

SMILES: C[Si](C)(OC(=O)[C@H](Cc1ccccc1)NC(=O)[C@H](Cc1ccccc1)NC(=O)[C@H](Cc1ccccc1)NC(=O)[C@@H](N)Cc1ccccc1)OC(=O)[C@H](Cc1ccccc1)NC(=O)[C@H](Cc1ccccc1)NC(=O)[C@H](Cc1ccccc1)NC(=O)[C@@H](N)Cc1ccccc1 [Dimethyl bis(tetraphenylalanyl)slylester]
- Wirkung auf Basalzellkarzinome (Basalzellkarzinome): zeigen eine Wirkung

SMILES: C[Si](C)(OC(=O)CNC(=O)CNC(=O)CNC(=O)CN)OC(=O)CNC(=O)CNC(=O)CNC(=O)CN [Dimethyl bis(tetraglycyl)silylester]
- Wirkung gegen Medulloblastome (Medulloblastome [1]): zeigen eine Wirkung
- Wirkung gegen Entero-Viren (Entero-Viren [2]): zeigen eine Wirkung

SMILES: CCC[Si](CCC)(OC(=O)[C@H](Cc1ccccc1)NC(=O)[C@H](Cc1ccccc1)NC(=O)[C@H](Cc1ccccc1)NC(=O)[C@H](Cc1ccccc1)NC(=O)[C@H](Cc1ccccc1)NC(=O)[C@H](Cc1ccccc1)NC(=O)[C@@H](N)Cc1ccccc1)OC(=O)[C@H](Cc1ccccc1)NC(=O)[C@H](Cc1ccccc1)NC(=O)[C@H](Cc1ccccc1)NC(=O)[C@H](Cc1ccccc1)NC(=O)[C@H](Cc1ccccc1)NC(=O)[C@H](Cc1ccccc1)NC(=O)[C@@H](N)Cc1ccccc1 [Dipropyl bis(heptaphenylalanyl)silylester] (I: H-FFFFFFF / II: H-FFFFFFF; linker I:C-II:C via OSi(nPr)2O)
- Wirkung gegen Plasmozyten (Plasmozyten): zeigen eine Wirkung
- Wirkung gegen Hepatitis A-Viren (Hepatitis A-Viren): zeigen eine Wirkung

SMILES: CCCCCCCCCCCC(=O)O[Si](C)(C)OC(=O)CCCCCCCCCCC [Di(dodecanoyloxy)dimethylsilan]
- Bedenkliche Toxizität [3]: -
- IC50 ([3]; suspensions, 48 Stunden bei 37°C): 129 µM
- Wirkung auf Osteosarkome (Osteosarkome): zeigen eine Wirkung
- Vitalitätsbeeinflussungen im Neutralrot-Test [4]: geringere Vitalitätsbeeinflussungen als im Zytotoxizitätstest
- zentrale, vegetative und toxische Effekte (Verhaltensänderungen) (Maus; 1•10^-3 mol/kg): keine Verhaltensänderungen
- zentrale, vegetative und toxische Effekte (Verhaltensänderungen) (Maus; 5•10^-3 mol/kg): Ataxie, Ploerektion, Griffstärkesenkung
- zentrale, vegetative und toxische Effekte (Verhaltensänderungen) (Maus; 5•10^-4 mol/kg): keine Verhaltensänderungen

SMILES: CCCCCCCCC(=O)O[Si](OC(=O)CCCCCCCC)(C(C)C)C(C)C [Di(nonanoyloxy)diisopropylsilan]
- antimetastasierende Wirkung bei Osteosarkomen (Osteosarkomen): zeigen eine antimetastasierende Wirkung

SMILES: CCCCCCCCCCC(=O)O[Si](OC(=O)CCCCCCCCCC)(C(C)C)C(C)C [Di(undecanoyloxy)diisopropysilan]
- antimetastasierende Wirkung bei Osteosarkomen (Osteosarkomen): zeigen eine antimetastasierende Wirkung

SMILES: CCCCCCCCCC(=O)O[Si](OC(=O)CCCCCCCCC)(C(C)C)C(C)C [Di(decanoyloxy)diisopropylsilan]
- antimetastasierende Wirkung bei Osteosarkomen (Osteosarkomen): zeigen eine antimetastasierende Wirkung

SMILES: CCCCCCCC/C=C\CCCCCCCC(=O)O[Si](OC(=O)CCCCCCC/C=C\CCCCCCCC)(C(C)C)C(C)C
- Wirkung gegen Medulloblastome (Medulloblastome [5]): zeigen eine Wirkung
- Wirkung auf Lymphome (Lymphome): zeigen eine Wirkung
- Wirkung gegen Entero-Viren (Entero-Viren [6]): zeigen eine Wirkung
- Wirkung gegen HIV-Vren (HIV-Vren): zeigen eine Wirkung

SMILES: CCCCCCCCCCCC[Si](C)(C)O[C@@H]1O[C@H](COC(C)=O)[C@@H](OC(C)=O)[C@H](OC(C)=O)[C@H]1OC(C)=O [Silan 12, 1-O-Dimethyl(dodecyl)silyl-2,3,4,6-tetra-0-acetyl-ß-D-glucopyrasonid]
- Wirkung auf Krebszellen (Krebszellen): zeigen ebenfalls eine Wirkung

SMILES: C[Si](C)(OC(=O)[C@H](Cc1ccccc1)NC(=O)[C@H](Cc1ccccc1)NC(=O)[C@H](Cc1ccccc1)NC(=O)[C@H](Cc1ccccc1)NC(=O)[C@@H](N)Cc1ccccc1)OC(=O)[C@H](Cc1ccccc1)NC(=O)[C@H](Cc1ccccc1)NC(=O)[C@H](Cc1ccccc1)NC(=O)[C@H](Cc1ccccc1)NC(=O)[C@@H](N)Cc1ccccc1 [Dimethyl bis(pentaphenylalanyl)silylester]
- Wirkung auf Basalzellkarzinome (Basalzellkarzinome): zeigen eine Wirkung

SMILES: C[Si](C)(OC(=O)CNC(=O)CNC(=O)CNC(=O)CNC(=O)CNC(=O)CNC(=O)CNC(=O)CN)OC(=O)CNC(=O)CNC(=O)CNC(=O)CNC(=O)CNC(=O)CNC(=O)CNC(=O)CN [Dimethyl bis(octaglycyl)silylester] (I: H-GGGGGGGG / II: H-GGGGGGGG; linker I:C-II:C via X1)
- Wirkung gegen Medulloblastome (Medulloblastome [1]): zeigen eine Wirkung
- Wirkung gegen Entero-Viren (Entero-Viren [2]): zeigen eine Wirkung

SMILES: CC/C=C\C/C=C\C/C=C\CCCCCCCC(=O)O[Si](OC(=O)CCCCCCC/C=C\C/C=C\C/C=C\CC)(C(C)C)C(C)C [Di(linolenoylooxy) diisopropylsilan]
- Wirkung auf Lymphome (Lymphome): zeigen eine Wirkung
- Wirkung gegen HIV-Vren (HIV-Vren): zeigen eine Wirkung
